Target: T1, Mtm (Mtm^WT::GFP) (Drosophila melanogaster, UniProt Q9VMI9)
T1 construct: C-terminal GFP tag, overexpressed (da-Gal4) in third instar larvae, whole larval lysate; ~100 kD
T1 sequence (Q9VMI9 1-619): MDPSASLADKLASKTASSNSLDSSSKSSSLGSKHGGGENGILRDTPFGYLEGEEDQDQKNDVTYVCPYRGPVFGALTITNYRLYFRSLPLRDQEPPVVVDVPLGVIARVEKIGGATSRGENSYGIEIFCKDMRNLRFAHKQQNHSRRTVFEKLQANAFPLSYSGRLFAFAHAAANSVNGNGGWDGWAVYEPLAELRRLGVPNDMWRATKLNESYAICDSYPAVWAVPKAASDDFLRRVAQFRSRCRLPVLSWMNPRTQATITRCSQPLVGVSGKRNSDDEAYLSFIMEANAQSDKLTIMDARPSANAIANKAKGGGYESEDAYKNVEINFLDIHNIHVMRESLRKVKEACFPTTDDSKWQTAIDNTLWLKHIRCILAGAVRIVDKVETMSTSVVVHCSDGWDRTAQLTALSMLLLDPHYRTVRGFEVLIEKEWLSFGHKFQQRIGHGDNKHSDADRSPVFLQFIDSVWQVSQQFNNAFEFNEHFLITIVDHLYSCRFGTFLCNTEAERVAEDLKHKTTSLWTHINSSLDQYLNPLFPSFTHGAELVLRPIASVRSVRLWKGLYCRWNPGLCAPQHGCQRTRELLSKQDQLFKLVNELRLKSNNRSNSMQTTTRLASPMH
Assay: LC-MS/MS in vitro 3-phosphatase assay, overexpressing larval lysate vs control lysate
Type: biochemical
Details: pH 7.4 lipid suspension, phosphatidylserine, 15 min, 37 °C; 10 ug lysate protein

SMILES: CCCCC/C=C\C/C=C\C/C=C\C/C=C\CCCC(=O)O[C@H](COC(=O)CCCCCCCCCCCCCCCC)COP(=O)(O)O[C@@H]1[C@H](O)[C@H](OP(=O)(O)O)[C@@H](O)[C@H](O)[C@H]1O [17:0 20:4 PI3P]
- 3-phosphatase activity, overexpressing vs control lysate: lysates with Mtm overexpression showed significantly higher PI3P 3-phosphatase activity compared with control lysates
